Among the data in patent US9382218B2, “N-heteroaryl substituted aniline derivatives as HCV-antivirals” (priority 2013, dated 2016) are EC50 values, retold here.

What all share (experiment): microbe, parasite or virus in culture
Assay [1] concerns HCVpp GT-1a (pseudotyped HCV particles, E1/E2 of GT1a H77 strain). The class given is cell-based, Hepatitis C virus GT1a H77 strain. The conditions noted are these: Hepatitis C virus, 72 h, read-out: HCVpp GT-1a (EC50, M).
Assay [2] has as its system HCVpp GT-1b (pseudotyped HCV particles, E1/E2 of GT1b Con1 strain). It counts as cell-based, Hepatitis C virus GT1b Con1 strain. The conditions noted are these: Hepatitis C virus, 72 h, read-out: HCVpp GT-1b (EC50, M).
In assay [3] the test system is VSVpp (pseudotyped VSV G particles). The class given is cell-based. As to conditions: Vesicular stomatitis virus, 72 h, read-out: VSVpp (EC50, M).

Turning to `Nc1cc(Nc2cc(Cl)cc(Cl)c2)[nH]n1` [Compound 1, N^5-(3,5-Dichloro-phenyl)-1H-pyrazole-3,5-diamine], the EC50 in assay [1] is 3.99e-05 M; in assay [2], 6.4e-05 M; in assay [3], not below 0.0001 M.
Consider `Nc1cc(Nc2cc(Cl)c(F)c(Cl)c2)[nH]n1` [Compound 2, N^5-(3,5-Dichloro-4-fluoro-phenyl)-1H-pyrazole-3,5-diamine], for which the EC50 in assay [2] is 5.22e-05 M; in assay [3], 3.4e-05 M.
Turning to `Cc1nnc(Nc2cc(Cl)cc(Cl)c2)o1` [Compound 3, (3,5-Dichloro-phenyl)-(5-methyl-[1,3,4]oxadiazol-2-yl)-amine], the results for the EC50 in assay [1], in assay [2] and in assay [3] were 3.93e-05 M, 3.58e-05 M and not below 0.0001 M, respectively.
The like results for `Nc1nc(Nc2cccc(C(F)(F)F)c2)no1` [Compound 4, N^3-(3-Trifluoromethyl-phenyl)-[1,2,4]oxadiazole-3,5-diamine] were, in that order, 1.36e-06 M, 6.06e-06 M and more than 0.0001 M.
Take `Nc1noc(Nc2cc(Cl)cc(Cl)c2)n1` [Compound 5, N^5-(3,5-Dichloro-phenyl)-[1,2,4]oxadiazole-3,5-diamine]: the EC50 was found to be 8.63e-06 M in assay [1], 9.22e-06 M in assay [2] and 9.8e-06 M in assay [3].
As for `Nc1nc(Nc2cc(Cl)cc(Cl)c2)no1` [Compound 6, N^3-(3,5-Dichloro-phenyl)-[1,2,4]oxadiazole-3,5-diamine], the figures for the EC50 in assay [1], in assay [2] and in assay [3] were 3.55e-06 M, 1.03e-05 M and 8.6e-05 M, respectively.
With `Nc1nc(Nc2cc(Cl)cc(C(F)(F)F)c2)no1` [Compound 8, N^3-(3-Chloro-5-trifluoromethyl-phenyl)-[1,2,4]oxadiazole-3,5-diamine], the EC50 in assay [2] was 9.03e-06 M; in assay [3] it was not below 0.0001 M.
Consider `CS(=O)(=O)Nc1cccc(-c2c(Cl)cc(Nc3nc(N)no3)cc2C(F)(F)F)c1` [Compound 9, N-[4′-(3-Amino-[1,2,4]oxadiazol-5-ylamino)-6′-chloro-2′-trifluoromethyl-biphenyl-3-yl]-methanesulfonamide], for which the EC50 was 2.99e-06 M in assay [2] and 7.04e-06 M in assay [3].
As for `CS(=O)(=O)Nc1cccc(-c2c(Cl)cc(Nc3noc(N)n3)cc2C(F)(F)F)c1` [Compound 10, N-[4′-(5-Amino-[1,2,4]oxadiazol-3-ylamino)-6′-chloro-2′-trifluoromethyl-biphenyl-3-yl]-methanesulfonamide], the EC50 in assay [2] came out at 1.53e-06 M; in assay [3], 9.87e-06 M.
`Nc1cnc(Nc2cc(Cl)cc(Cl)c2)o1` [Compound 11, N^2-(3,5-Dichloro-phenyl)-oxazole-2,5-diamine]: the EC50 in assay [1] was 2.93e-05 M; in assay [3] it was not below 0.0001 M.

A word on the EC50: it is the concentration giving half of the maximal effect.
